In US5075299A, “Cephalosporin compounds and antibacterial agents” (Meiji Seika Kaisha, Ltd., priority 1988, dated 1991):
Converted amounts (≈) assume the structure as drawn. Like-named read-outs stand apart in the source and are kept apart here.

Key:
[1] = tested on: Staphylococcus aureus 606 E-25; test: antibacterial activity, agar dilution method; format: cell-based
[2] = tested on: Escherichia coli W3630 RGN238; test: antibacterial activity, agar dilution method; format: cell-based; conditions: W3630RGN238, read-out: Antibacterial Activity MIC
Escherichia coli GN206 = test: antibacterial activity, agar dilution method; format: cell-based
[3] = tested on: Klebsiella pneumoniae GN118; test: antibacterial activity, agar dilution method; format: cell-based
Proteus rettgeli GN624 = test: antibacterial activity, agar dilution method; format: cell-based; conditions: read-out: Antibacterial Activity MIC
[4] = tested on: Citrobacter froindii GN346; test: antibacterial activity, agar dilution method; format: cell-based
[5] = tested on: Serratia marcescens GN629; test: antibacterial activity, agar dilution method; format: cell-based
[6] = tested on: Pseudomonas aeruginosa MB3833; test: antibacterial activity, agar dilution method; format: cell-based
[7] = tested on: Pseudomonas aeruginosa IAM-1007; test: antibacterial activity, agar dilution method; format: cell-based
mice = test: acute toxicity using mice; format: in vivo; conditions: dose of 2 g/kg by intravenous injection
Source text: Acute toxicity of the compound of Example 2 was examined using mice.

[8] = Klebsiella pneumoniae, GN118, read-out: Antibacterial Activity MIC
[9] = 606E25, Staphylococcus aureus 606 E-25, agar dilution method, read-out: Antibacterial Activity MIC
[10] = Escherichia coli GN206, agar dilution method, read-out: Antibacterial Activity MIC
[11] = Klebsiella pneumoniae GN118, agar dilution method, read-out: Antibacterial Activity MIC
[12] = Proteus rettgeli GN624, agar dilution method
[13] = Citrobacter froindii GN346, agar dilution method, read-out: Antibacterial Activity MIC
[14] = Serratia marcescens GN629, agar dilution method, read-out: Antibacterial Activity MIC
[15] = Pseudomonas aeruginosa MB3833, agar dilution method, read-out: Antibacterial Activity MIC
[16] = IAM1007, Pseudomonas aeruginosa IAM-1007, agar dilution method, read-out: Antibacterial Activity MIC

| Compound | MIC ([1]; Staphylococcus aureus, 606E25, read-out: Antibacterial Activity MIC) [µg/mL] | MIC [2] [µg/mL] | MIC (Escherichia coli GN206; Escherichia coli, GN206, read-out: Antibacterial Activity MIC) [µg/mL] | MIC [3, 8] [µg/mL] | MIC (Proteus rettgeli GN624) [µg/mL] | MIC ([4]; Citrobacter, GN346, read-out: Antibacterial Activity MIC) [µg/mL] | MIC ([5]; Serratia marcescens, GN629, read-out: Antibacterial Activity MIC) [µg/mL] | MIC ([6]; Pseudomonas aeruginosa, MB3833, read-out: Antibacterial Activity MIC) [µg/mL] | MIC ([7]; Pseudomonas aeruginosa, IAM1007, read-out: Antibacterial Activity MIC) [µg/mL] | MIC [1, 9] [µg/mL] | MIC (Escherichia coli GN206; [10]) [µg/mL] | MIC [3, 11] [µg/mL] | MIC (Proteus rettgeli GN624; [12]) [µg/mL] | MIC [4, 13] [µg/mL] | MIC [5, 14] [µg/mL] | MIC [6, 15] [µg/mL] | MIC [7, 16] [µg/mL] | Acute toxicity (death) (mice) |
| --- | --- | --- | --- | --- | --- | --- | --- | --- | --- | --- | --- | --- | --- | --- | --- | --- | --- | --- |
| CC(C)(O/N=C(\C(=O)N[C@@H]1C(=O)N2C(C(=O)[O-])=C(C[n+]3ccccc3)CS[C@H]12)c1csc(N)n1)C(=O)O [CAZ, reference compound] | 12.5 (≈ 22.9 µM) | 0.39 (≈ 0.714 µM) | 1.56 (≈ 2.85 µM) | 0.78 (≈ 1.43 µM) | 1.56 (≈ 2.85 µM) | 50 (≈ 91.5 µM) | 0.39 (≈ 0.714 µM) | 0.78 (≈ 1.43 µM) | 1.56 (≈ 2.85 µM) | – | – | – | – | – | – | – | – | – |
| CO/N=C(\C(=O)N[C@@H]1C(=O)N2C(C(=O)O)=C(COC(C)=O)CS[C@H]12)c1csc(N)n1 [CTX, reference compound] | – | 0.2 (≈ 0.439 µM) | – | – | – | – | – | – | – | 1.56 (≈ 3.43 µM) | 1.56 (≈ 3.43 µM) | 0.05 (≈ 0.11 µM) | 1.56 (≈ 3.43 µM) | 12.5 (≈ 27.4 µM) | 0.39 (≈ 0.856 µM) | 12.5 (≈ 27.4 µM) | 12.5 (≈ 27.4 µM) | – |
| Cc1c(O)c(=O)cc(CO/N=C(\C(=O)NC2C(=O)N3C(C(=O)O)=C(CSc4cnns4)CSC23)c2csc(N)n2)n1O (stereo not shown) [Example 2, 7-((Z)-2-(2-Aminothiazol-4-yl)-2-(6-methyl-1,5-dihydroxy-4-pyridon-2-ylmethoxyimino)acetamido)-3-(1,2,3-thiadiazol-5-yl-thiomethyl)-3-cephem-4-carboxylic acid] | – | < 0.025 | – | – | – | – | – | – | – | 12.5 (≈ 19.2 µM) | 0.39 (≈ 0.598 µM) | < 0.025 | 0.1 (≈ 0.153 µM) | 6.25 (≈ 9.58 µM) | 0.05 (≈ 0.0766 µM) | < 0.025 | < 0.025 | no death was noted |
| Cc1c(O)c(=O)cc(CO/N=C(\C(=O)NC2C(=O)N3C(C(=O)O)=C(CSc4nnnn4C)CSC23)c2csc(N)n2)n1O (stereo not shown) [Example 4, 7-((Z)-2-(2-Aminothiazol-4-yl)-2-(6-methyl-1,5-dihydroxy-4-pyridon-2-ylmethoxyimino)acetamido)-3-(1-methyl-1H-tetrazol-5-ylthiomethyl)-3-cephem-4-carboxylic acid] | – | < 0.025 | – | – | – | – | – | – | – | 25 (≈ 38.4 µM) | 0.1 (≈ 0.154 µM) | < 0.025 | 0.05 (≈ 0.0768 µM) | 6.25 (≈ 9.61 µM) | 0.05 (≈ 0.0768 µM) | < 0.025 | < 0.025 | – |
| Cc1cc(=O)c(O)c(CO/N=C(\C(=O)NC2C(=O)N3C(C(=O)O)=C(CSc4cnns4)CSC23)c2csc(N)n2)n1O (stereo not shown) [Example 6] | – | 0.05 (≈ 0.0766 µM) | – | < 0.025 | – | – | – | – | – | 1.56 (≈ 2.39 µM) | 0.78 (≈ 1.2 µM) | – | 0.1 (≈ 0.153 µM) | 6.25 (≈ 9.58 µM) | 0.2 (≈ 0.306 µM) | 0.39 (≈ 0.598 µM) | 0.39 (≈ 0.598 µM) | – |
